Laboratory results as given in patent US9315467B2, “Compounds for nonsense suppression, and methods for their use” (priority 2004, dated 2016).

Row | Compound | melting point [°C]
1 | O=C(O)c1cccc(-c2nccc(-c3ccc(-c4ccccc4)cc3)n2)c1 [Compound 75, 3-(4-Biphenyl-4-yl-pyrimidin-2-yl)-benzoic acid] | 296 to 299
2 | Cc1ccc(-c2cncc(-c3ccc(C(=O)O)cc3)c2)cc1 [Compound 15, 4-(5-p-Tolyl-pyridin-3-yl)-benzoic acid] | 260 to 262
3 | Cc1ccc(-c2ncnc(-c3ccc(C(=O)O)cc3)n2)cc1 [Compound 46, 4-(4-p-Tolyl-[1,3,5]triazin-2-yl)-benzoic acid] | 288 to 290
4 | O=C(O)c1ccc(-c2ccnc(-c3ccccc3C(F)(F)F)n2)cc1 [Compound 31, 4-[2-(2-Trifluoromethyl-phenyl)-pyrimidin-4-yl]-benzoic acid] | 251 to 252
5 | O=C(O)c1ccc(-c2nccc(-c3ccc(Br)cc3)n2)cc1 [Compound 33, 4-[4-(4-Bromo-phenyl)-pyrimidin-2-yl]-benzoic acid] | 302 to 305
6 | CCOc1ccc(-c2ncnc(-c3cccc(C(=O)O)c3)n2)cc1 [Compound 45, 3-[4-(4-Ethoxy-phenyl)-[1,3,5]triazin-2-yl]-benzoic acid] | 269 to 272
7 | O=C(O)c1cccc(-c2nccc(-c3cccc(C(F)(F)F)c3)n2)c1 [Compound 77, 3-[4-(3-Trifluoromethyl-phenyl)-pyrimidin-2-yl]-benzoic acid] | 271 to 273
8 | O=C(O)c1cccc(-c2nccc(-c3ccc4c(c3)OCCO4)n2)c1 [Compound 42, 3-[4-(2,3-Dihydro-benzo[1,4]dioxin-6-yl)-pyrimidin-2-yl]-benzoic acid] | 239 to 241
9 | COc1cccc(-c2nccc(-c3ccc(C(=O)O)cc3)n2)c1 [Compound 16, 4-[2-(3-Methoxy-phenyl)-pyrimidin-4-yl]-benzoic acid] | 270 to 273
10 | O=C(O)c1ccc(-c2ccnc(-c3cccc(F)c3)n2)cc1 [Compound 25, 4-[2-(3-Fluoro-phenyl)-pyrimidin-4-yl]-benzoic acid] | 300 to 303
11 | O=C(O)c1ccc(-c2nccc(-c3ccc(-n4ccnc4)cc3)n2)cc1 [Compound 41, 4-[4-(4-Imidazol-1-yl-phenyl)-pyrimidin-2-yl]-benzoic acid] | > 305
12 | O=C(O)c1ccc(-c2nccc(-c3ccc(OC(F)(F)F)cc3)n2)cc1 [Compound 34, 4-[4-(4-Trifluoromethoxy-phenyl)-pyrimidin-2-yl]-benzoic acid] | 234 to 236
13 | COc1ccc(-c2nccc(-c3ccc(C(=O)O)cc3)n2)cc1 [Compound 30, 4-[2-(4-Methoxy-phenyl)-pyrimidin-4-yl]-benzoic acid] | > 300
14 | CC(C)c1ccc(-c2ccnc(-c3ccc(C(=O)O)cc3)n2)cc1 [Compound 36, 4-[4-(4-Isopropyl-phenyl)-pyrimidin-2-yl]-benzoic acid] | 243 to 245
15 | O=C(O)c1cccc(-c2ncnc(-c3cccc(F)c3)n2)c1 [Compound 49, 3-[4-(3-Fluoro-phenyl)-[1,3,5]triazin-2-yl]-benzoic acid] | 273 to 276
16 | O=C(O)c1cccc(-c2nccc(-c3ccc(C(F)(F)F)cc3)n2)c1 [Compound 78, 3-[4-(4-Trifluoromethyl-phenyl)-pyrimidin-2-yl]-benzoic acid] | 271 to 273
17 | Cc1cccc(-c2ccnc(-c3ccc(C(=O)O)cc3)n2)c1 [Compound 64, 4-(4-m-Tolyl-pyrimidin-2-yl)-benzoic acid] | 220 to 222
18 | O=C(O)c1ccc(-c2ccnc(-c3ccccc3F)n2)cc1 [Compound 23, 4-[2-(2-Fluoro-phenyl)-pyrimidin-4-yl]-benzoic acid] | > 300

Row | Compound | melting point [°C]
19 | O=C(O)c1ccc(-c2nccc(-c3ccccc3F)n2)cc1 [Compound 65, 4-[4-(2-Fluoro-phenyl)-pyrimidin-2-yl]-benzoic acid] | 234 to 236
20 | COc1ccc(-c2ncnc(-c3ccc(C(=O)O)cc3)n2)cc1 [Compound 53, 4-[4-(4-Methoxy-phenyl)-[1,3,5]triazin-2-yl]-benzoic acid] | > 300
21 | Cc1ccc(-c2cc(-c3cccc(C(=O)O)c3)ncn2)cc1 [Compound 3, 3-(6-p-Tolyl-pyrimidin-4-yl)-benzoic acid] | 201 to 203
22 | O=C(O)c1ccc(-c2ncnc(-c3ccc(F)cc3)n2)cc1 [Compound 47, 4-[4-(4-Fluoro-phenyl)-[1,3,5]triazin-2-yl]-benzoic acid] | 295 to 298
23 | O=C(O)c1cccc(-c2nccc(-c3ccc(-n4ccnc4)cc3)n2)c1 [Compound 79, 3-[4-(4-Imidazol-1-yl-phenyl)-pyrimidin-2-yl]-benzoic acid] | > 310
24 | Cc1ccc(-c2cccc(-c3ccc(C(=O)O)cc3)n2)cc1 [Compound 14, 4-(6-p-Tolyl-pyridin-2-yl)-benzoic acid] | 283 to 284
25 | O=C(O)c1ccc(-c2nccc(-c3ccc(N4CCOCC4)cc3)n2)cc1 [Compound 67, 4-[4-(4-Morpholin-4-yl-phenyl)-pyrimidin-2-yl]-benzoic acid] | 289 to 291
26 | O=C(O)c1ccc(-c2ccnc(-c3ccc(Cl)cc3)n2)cc1 [Compound 22, 4-[2-(4-Chloro-phenyl)-pyrimidin-4-yl]-benzoic acid] | > 300
27 | O=C(O)c1ccc(-c2nccc(-c3ccc(C(F)(F)F)cc3)n2)cc1 [Compound 66, 4-[4-(4-Trifluoromethyl-phenyl)-pyrimidin-2-yl]-benzoic acid] | 282 to 285
28 | O=C(O)c1ccc(-c2ccnc(-c3ccccc3)n2)cc1 [Compound 28, 4-(2-Phenyl-pyrimidin-4-yl)-benzoic acid] | > 300
29 | CN(C)c1ccc(-c2ccnc(-c3cccc(C(=O)O)c3)n2)cc1 [Compound 60, 3-[4-(4-Dimethylamino-phenyl)-pyrimidin-2-yl]-benzoic acid] | 281 to 283
30 | Cc1ccc(-c2ccnc(-c3ccc(C(=O)O)cc3)c2)cc1 [Compound 13, 4-(4-p-Tolyl-pyridin-2-yl)-benzoic acid] | 288 to 291
31 | O=C(O)c1ccc(-c2ccnc(-c3ccc(OC(F)(F)F)cc3)n2)cc1 [Compound 27, 4-[2-(4-Trifluoromethoxy-phenyl)-pyrimidin-4-yl]-benzoic acid] | 299 to 302
32 | Cc1ccc(-c2nccc(-c3ccc(C(=O)O)cc3)n2)cc1 [Compound 10, 4-(2-p-Tolyl-pyrimidin-4-yl)-benzoic acid] | > 310
33 | COc1ccc(-c2ccnc(-c3ccc(C(=O)O)cc3)n2)cc1 [Compound 37, 4-[4-(4-Methoxy-phenyl)-pyrimidin-2-yl]-benzoic acid] | 263 to 265
34 | Cc1ccc(-c2ccnc(-c3ccc(C(=O)O)cc3)n2)cc1 [Compound 35, 4-(4-p-Tolyl-pyrimidin-2-yl)-benzoic acid] | 287 to 289
35 | O=C(O)c1ccc(-c2ccnc(-c3cccc(OC(F)(F)F)c3)n2)cc1 [Compound 19, 4-[2-(3-Trifluoromethoxy-phenyl)-pyrimidin-4-yl]-benzoic acid] | > 300
36 | O=C(O)c1ccc(-c2nccc(-c3ccc4c(c3)OCCO4)n2)cc1 [Compound 40, 4-[4-(2,3-Dihydro-benzo[1,4]dioxin-6-yl)-pyrimidin-2-yl]-benzoic acid] | 272 to 274
